Measured values taken from patent US20210332001A1, “SYNTHESIS AND ANTI-TUMOR ACTIVITIES OF ACYL-PARA-AMINOPHENOL DERIVATIVES” (Montefiore Medical Center, priority 2018, published 2021).
Values belong to the molecule of their own block, whether it stands above or below them.

What was measured:
[1] = tested on: U87MG cells, stage IV astrocytoma; assay: U87MG cell survival (presto blue), 48 hours post treatment; type: cell-based
Procedure: (§1) FIG. 1. U87MG cells, stage IV astrocytoma obtained from ATCC, were tested against APAP and its derivatives at various concentrations with 0.2% DMSO as a vehicle. Cells were seeded at 3500 cells and allowed 48 hours to stabilize before treatment. Drugs were administered and data for cell survival, using presto blue, were analyzed at 48 hours post treatment.
as §1, with “U87MG” for “FIG. 1. U87MG”, “concentration” for “concentrations”, “vehicle (FIG. 1).” for “vehicle.”

[2] = tested on: differentiated neuronal cell line HCN-2; assay: Toxicity on differentiated neuronal cell line HCN-2; type: cell-based, human; settings: HCN-2 differentiated 12 days; for reduction (non-significant): highest soluble concentration, not a significant reduction
Procedure: FIG. 3. The compounds were tested on a differentiated neuronal cell line (9) HCN-2, obtained from ATCC. Cells were seeded at 5,000 cells per well using a low passage, second passage of cells to ensure cell stability. Cells were then subjected to induced differentiation, at 72 hours, with a differentiating concoction composed of 25 ng/mL NGF-beta-human, 0.05 mM dibutyryl cAMP and 0.5 mM IBMX in 10% DMEM, all differentiating factors were obtained from Sigma Aldrich (9). Cells were treated with differentiating factor for 12 days to ensure that cells differentiated into neuronal cells. On the twelfth day, cells were treated with and without drugs at the highest soluble concentration to determine the activity of the compounds on neuronal cells.
The compounds were also tested on a differentiated neuronal cell line, HCN-2, obtained from ATCC (FIG. 3).

[3] = tested on: T-cell lymphoma cells line (Jurkat cells); assay: Jurkat T-cell lymphoma cell survival (presto blue), 48 hours post treatment; type: cell-based
Procedure: FIG. 2. The compounds were tested against T-cell lymphoma cells line (Jurkat cells) obtained from ATCC and were tested against APAP and its derivatives at various concentrations with 0.2% DMSO as a vehicle. Free flowing cells were seeded at 3500 cells and allowed 48 hours to stabilize before treatment. Drugs were administered to both seeded wells and wells that that were designated blank, without cells. This additional step was added in order to account for the effects of the drugs on the reagent used for analysis. Data for cell survival, using presto blue, was analyzed at 48 hours post treatment.
The effects of the drugs on lymphoma cells were tested on Jurkat cells, as described above and in FIG. 2.

[4] = tested on: malignant astrocytes; settings: cell culture method, Casper et al. (6); cited from earlier work

SMILES: CCCCCCCCCCCC(=O)Nc1ccc(O)cc1 [PL12, N-(4-hydroxyphenyl)dodecanamide]
- melting point: 128 °C

SMILES: CCCCCC(=O)Nc1ccc(O)cc1 [PL6, N-(4-hydroxyphenyl)hexanamide]
- melting point: 110 °C

SMILES: CCCCCCCC(=O)Nc1ccc(O)cc1 [PL8, N-(4-hydroxyphenyl)octanamide]
- melting point: 120 °C
- activity (cell survival) in words ([1]; 0.25 mM): greatest activity
- toxicity on neuronal cells ([2]; highest concentration 0.5 mM): toxicity

SMILES: CC(=O)Nc1ccc(O)cc1 [APAP, N-(4-Hydroxyphenyl)acetamide, reference compound]
- reduction in cell growth as compared to control 0.2% DMSO ([1]; 2 mM): 36%
- reduction in cell growth as compared to control 0.2% DMSO ([3]; 2 mM): 16%
- ability to reduce the growth of malignant astrocytes [4]: only mild

SMILES: CCCCCCCCCCCCCCCC(=O)Nc1ccc(O)cc1 [PL16, N-(4-Hydroxyphenyl)hexadecanamide]
- melting point: 131 °C

SMILES: O=C(Nc1ccc(O)cc1)c1ccccc1 [PL5B, N-(4-hydroxyphenyl)benzamide]
- melting point: 217 to 218 °C

SMILES: O=C(Nc1ccc(O)cc1)c1ccc2ccccc2c1 [PL11]
- reduction in cell growth ([1]; 0.25 mM): 87.5%
- reduction (non-significant) [2]: 35.6%

Second part, led by results:

- melting point: 124 °C
SMILES: CCCCCCCCCC(=O)Nc1ccc(O)cc1 [PL10, N-(4-hydroxyphenyl)decanamide]
- activity when compared to APAP ([3]; 0.125 mM): greatest activity
- reduction (non-significant) [2]: 35.6%

- melting point: 109 °C
SMILES: CCCCCCC(=O)Nc1ccc(O)cc1 [PL7, N-(4-hydroxyphenyl)heptanamide]
- activity (cell survival) in words ([1]; 0.5 mM): greatest activity
- toxicity on neuronal cells ([2]; highest concentration 0.5 mM): toxicity

- melting point: 119 °C
SMILES: CCCCCCCCC(=O)Nc1ccc(O)cc1 [PL9, N-(4-hydroxyphenyl)nonanamide]
- toxicity on neuronal cells ([2]; highest concentration 0.25 mM): toxicity

- melting point: 160 to 162 °C
SMILES: CC(C)C(=O)Nc1ccc(O)cc1 [PL4, N-(4-hydroxyphenyl)-2-methylpropanamide]
